PubChem BioAssay AID806 (SRMLSC, 2007)
The source made the active and inactive calls. How the calls were made is not given here.

System: virus-infected cells, CPE inhibition, dose response
Experiment: PubChem AID 806
Conditions: for EC90: measured here: EC90 CPE inhibition; for CC50: measured here: cytotoxicity, cell viability IC50

Compound | EC50 | EC90 | CC50
COC(=O)c1ccc(CSc2nnc3n(Cc4ccccc4OC)c(=O)c4ccccc4n23)o1 | > 60 µM (inactive) | > 60 µM | > 60 µM
CCOC(=O)/C=C1\SCC(=O)N1CC(=O)NC12CC3CC(CC(C3)C1)C2 | > 60 µM (inactive) | > 60 µM | > 60 µM
COc1ccc(C(=O)C(CN2CCOCC2)c2ccccc2)cc1 (configuration not stated) | > 60 µM (inactive) | > 60 µM | > 60 µM
Cc1nnc(SC(=O)N2c3ccccc3Sc3ccccc32)s1 | > 60 µM (inactive) | > 60 µM | > 60 µM
CCS(=O)(=O)Nc1cc(-c2nc3cccnc3s2)ccc1C | > 60 µM (inactive) | > 60 µM | > 60 µM
CCC(C)NC(=O)C1CCCCN1S(=O)(=O)c1ccc(F)cc1 (configuration not stated) | > 60 µM (inactive) | > 60 µM | > 60 µM
COc1ccccc1NC(=O)C1CCCCN1S(=O)(=O)c1ccc(F)cc1 (configuration not stated) | > 60 µM (inactive) | > 60 µM | > 60 µM
O=C(CCS(=O)(=O)c1cccc2nsnc12)NC1CCCCC1 | > 60 µM (inactive) | > 60 µM | > 60 µM
O=C(Nc1nc(-c2ccccc2)cs1)C1CCCCN1S(=O)(=O)c1ccccc1 (configuration not stated) | > 60 µM (inactive) | > 60 µM | > 60 µM
O=C(c1cnn2c(C(F)(F)F)cc(-c3ccc(Br)cc3)nc12)N1CCOCC1 | > 60 µM (inactive) | > 60 µM | > 60 µM
COc1ccccc1NC(=O)CS(=O)(=O)c1cccc2nsnc12 | > 60 µM (inactive) | > 60 µM | > 60 µM
CN(C)CCNc1ncnc2c1sc1nc(N3CCOCC3)c3c(c12)CC(C)(C)SC3 | > 60 µM (inactive) | > 60 µM | 16.3 µM
COc1ccc(S(=O)(=O)Nc2ccc(C)cc2)cc1N(C)S(=O)(=O)c1ccc(Cl)cc1 | > 60 µM (inactive) | > 60 µM | > 60 µM
CN1c2ccsc2C(O)=C(C(=S)Nc2ccccc2)S1(=O)=O | > 60 µM (inactive) | > 60 µM | > 60 µM
O=C(NCc1cccnc1)C1CCCCN1S(=O)(=O)c1ccc(F)cc1 (configuration not stated) | > 60 µM (inactive) | > 60 µM | > 60 µM
CC(C)(C)NC(=O)c1cccc(NC(=O)c2ccc(NC(=O)c3ccco3)cc2)c1 | > 60 µM (inactive) | > 60 µM | > 60 µM
O=C(Nc1ccc2c(c1)CCC2)c1cc2ccccc2o1 | > 60 µM (inactive) | > 60 µM | > 60 µM
CCN(CC)C(=O)CSc1nnc2sc3ccccc3n12 | > 60 µM (inactive) | > 60 µM | > 60 µM
O=C(c1cnn2c(C(F)F)cc(-c3ccccc3)nc12)N1CCOCC1 | > 60 µM (inactive) | > 60 µM | > 60 µM
O=C(CCS(=O)(=O)c1cccc2nsnc12)NC1CCCCCC1 | > 60 µM (inactive) | > 60 µM | > 60 µM
CC1CC(=O)C2=C(C1)Nc1ccccc1N(C(=O)COc1ccccc1)C2c1ccco1 (configuration not stated) | > 60 µM (inactive) | > 60 µM | > 60 µM
Cc1c(C(=O)Nc2ccccn2)oc2ccccc12 | > 60 µM (inactive) | > 60 µM | > 60 µM
COC(=O)Nc1ccc(S(=O)(=O)N2CCCCC2C(=O)NCc2ccco2)cc1 (configuration not stated) | > 60 µM (inactive) | > 60 µM | > 60 µM

Compound | EC50 | EC90 | CC50
O=C(Nc1ccc2nc3n(c(=O)c2c1)CCCCC3)c1ccccc1Cl | > 60 µM (inactive) | > 60 µM | > 60 µM
CCS(=O)(=O)Nc1cccc(-c2nc3cccnc3s2)c1C | > 60 µM (inactive) | > 60 µM | > 60 µM
Cc1cc(NC(=O)C2CC(c3ccc(F)cc3)=NO2)n(-c2ccccc2)n1 (configuration not stated) | > 60 µM (inactive) | > 60 µM | > 60 µM
COC(=O)CSc1nnc(-c2cccnc2)o1 | > 60 µM (inactive) | > 60 µM | > 60 µM
Cc1ccccc1NC(=O)c1ccc(NC(=O)c2ccco2)cc1 | > 60 µM (inactive) | > 60 µM | > 60 µM
Cc1noc(C)c1CSc1nc2sc(C)c(C)c2c(=O)n1C1CCCC1 | > 60 µM (inactive) | > 60 µM | 10 µM
COCCCNC(=O)C1CCCCN1S(=O)(=O)c1ccc(F)cc1 (configuration not stated) | > 60 µM (inactive) | > 60 µM | > 60 µM
Cc1nc2nc(-c3cccnc3)[nH]n2c(=O)c1Cc1ccccc1 | > 60 µM (inactive) | > 60 µM | > 60 µM
Cc1ccc(CNC(=O)CCS(=O)(=O)c2cccc3nsnc23)cc1 | > 60 µM (inactive) | > 60 µM | > 60 µM
O=C1NC2=C(CCc3ccccc32)C(c2ccc(Br)cc2)N1 (configuration not stated) | 4.34 µM | 27.2 µM | > 60 µM
Cn1nc(C(=O)Nc2c(-c3ccccc3)nc3sccn23)c2ccccc2c1=O | > 60 µM (inactive) | > 60 µM | > 60 µM
Cc1cccc(NC(=O)CCS(=O)(=O)c2cccc3nsnc23)c1C | > 60 µM (inactive) | > 60 µM | > 60 µM
COc1ccc(OC)c(-n2c(SC)nnc2-c2c[nH]c3ccccc23)c1 | > 60 µM (inactive) | > 60 µM | > 60 µM
CCCOc1ccc(C(=O)C(CN2CCOCC2)c2ccccc2)cc1 (configuration not stated) | > 60 µM (inactive) | > 60 µM | > 60 µM
CCOC(=O)/C=C1\SCC(=O)N1CC(=O)Nc1ccc(OC)c(OC)c1 | > 60 µM (inactive) | > 60 µM | > 60 µM
O=c1[nH]c2ccccc2n1Cc1ccccc1 | > 60 µM (inactive) | > 60 µM | > 60 µM
NC(=O)CSc1nnc2sc3ccccc3n12 | > 60 µM (inactive) | > 60 µM | > 60 µM
CCC1CCCCN1C(=O)Nc1cccc(NC(=O)N2CCCCC2CC)c1 (configuration not stated) | > 60 µM (inactive) | > 60 µM | > 60 µM
COc1ccc(NC(=O)C2CCCCN2S(=O)(=O)c2ccc(F)cc2)cc1 (configuration not stated) | > 60 µM (inactive) | > 60 µM | > 60 µM
CCN(CC)S(=O)(=O)c1ccc(C(=O)NCc2ccc(C)cc2)cc1 | > 60 µM (inactive) | > 60 µM | > 60 µM
CS(=O)(=O)c1nc(-c2cccs2)cc(C(F)(F)F)n1 | > 60 µM (inactive) | > 60 µM | 30.1 µM
CC(C)c1ccc(C2NC(=O)NC3=C2CCc2ccccc23)cc1 (configuration not stated) | > 60 µM (inactive) | > 60 µM | > 60 µM
O=C1CC(C(=O)Nc2ccc(C(=O)N3CCOCC3)cc2)C2(CCCCC2)O1 (configuration not stated) | > 60 µM (inactive) | > 60 µM | > 60 µM

Compound | EC50 | EC90 | CC50
O=C(Nc1ccncc1)c1cc2ccccc2o1 | > 60 µM (inactive) | > 60 µM | > 60 µM
O=C1NCCCc2c1oc1ccc(O)cc21 | > 60 µM (inactive) | > 60 µM | > 60 µM
Cc1nc2scc(-c3ccco3)c2c(=O)n1/N=C/N(C)C | > 60 µM (inactive) | > 60 µM | > 60 µM
COCCNC(=O)c1noc2c1CCc1cc(OC)ccc1-2 | > 60 µM (inactive) | > 60 µM | > 60 µM
CC(C)c1cccc(C(C)C)c1OCCn1ccnc1 | > 60 µM (inactive) | > 60 µM | > 60 µM
CCOC(=O)CN(C(=O)Cn1nnc2ccccc21)C(C(=O)NCCOC)c1ccccc1 (configuration not stated) | > 60 µM (inactive) | > 60 µM | > 60 µM
O=C1CSC(=S)N1Cc1cccnc1 | > 60 µM (inactive) | > 60 µM | 50.8 µM
O=C1Cn2c(nc3ccccc32)N1c1ccccc1F | > 60 µM (inactive) | > 60 µM | > 60 µM
O=C(CN1CCN(c2ncccn2)CC1)NCc1ccccc1 | > 60 µM (inactive) | > 60 µM | > 60 µM
COC(=O)c1ccc(CN(C(C)=O)c2ccccc2)o1 | > 60 µM (inactive) | > 60 µM | > 60 µM
CCCNC(=O)c1noc2c1CCc1ccccc1-2 | > 60 µM (inactive) | > 60 µM | > 60 µM
O=C(CCS(=O)(=O)c1cccc2nsnc12)NCc1ccccc1Cl | > 60 µM (inactive) | > 60 µM | > 60 µM
CCOc1ccc(-c2nnc3ccc(SCC(=O)NCc4ccco4)nn23)cc1 | > 60 µM (inactive) | > 60 µM | > 60 µM
Cc1nc2nc(-c3ccc(Cl)cc3)[nH]n2c(=O)c1Cc1ccccc1 | > 60 µM (inactive) | > 60 µM | > 60 µM
CCOc1ccc(Nc2ncnc3c2cnn3-c2ccccc2)cc1 | > 60 µM (inactive) | > 60 µM | > 60 µM
CC(C)(C)OC(=O)N[C@@H](Cc1ccccc1)c1nnc(SCC(=O)O)o1 | > 60 µM (inactive) | > 60 µM | > 60 µM
COc1ccc2c(c1)CCc1c(C(=O)N3CCCC3)noc1-2 | > 60 µM (inactive) | > 60 µM | > 60 µM
CC1(C)Cc2c(c(N3CCOCC3)nc3sc4c(=O)[nH]cnc4c23)CS1 | > 60 µM (inactive) | > 60 µM | > 60 µM
CN1c2ccsc2C(O)=C(C(=O)Nc2ccccc2)S1(=O)=O | > 60 µM (inactive) | > 60 µM | > 60 µM
COc1cccc(Nc2ncnc3c2cnn3-c2cccc(C)c2)c1 | > 60 µM (inactive) | > 60 µM | > 60 µM
CCSc1nnc(-c2ccc(OC)cc2)o1 | > 60 µM (inactive) | > 60 µM | > 60 µM
COc1ccc(-c2csc(NC(=O)C3CCCCN3S(=O)(=O)c3ccccc3)n2)cc1 (configuration not stated) | > 60 µM (inactive) | > 60 µM | > 60 µM
O=C(c1noc2c1CCc1ccccc1-2)N1CCOCC1 | > 60 µM (inactive) | > 60 µM | > 60 µM
